Experimental data: patent US20240010684A1, “MASP INHIBITORY COMPOUNDS AND USES THEREOF” (BAYER AKTIENGESELLSCHAFT, priority 2020, published 2024)
Where a SMILES comes first, the peptide text is derived from it. Bridges are numbered along the chain shown (N, C = ends). [ ]: non-standard residue; d: D form. ξ: configuration not given here. Trx = NC[C@H]1CC[C@H](C(=O)O)CC1; tBuAla = CC(C)(C)C[C@H](N)C(=O)O; Pen = CC(C)(S)[C@H](N)C(=O)O; NMeC = CN[C@@H](CS)C(=O)O; Orn = NCCC[C@H](N)C(=O)O; Dab = NCC[C@H](N)C(=O)O; Dap = NC[C@H](N)C(=O)O; ξD = NC(CC(=O)O)C(=O)O

Columns and labels:
human MASP1 = human MASP1 (Homo sapiens (Human), UniProt P48740); assay: Biochemical human MASP1 assay (FRET substrate); details: Average IC50; recombinant human MASP1; read-out: human MASP1 IC50
In short: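 Recombinant human MASP1 (aa 297-699, C-terminal His tag, HEK293-expressed, Ni-NTA purified) diluted to 20 nM in 50 mM HEPES pH 8,0, 100 mM NaCl, 0,01% CHAPS, 0.5 mM glutathione, preincubated with compound in DMSO; reaction started with 20 μM ABZ/Dnp FRET substrate solution. Fluorescence (ex 320/em 420 nm) after 60-120 min at 32 C; IC50 from % inhibition.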

human MASP2 = human MASP2 (Homo sapiens (Human), UniProt O00187); assay: Biochemical human MASP2 assay (FRET substrate); details: Average IC50; recombinant human MASP2; read-out: human MASP2 IC50
In short: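 Mature recombinant human MASP2, expressed in HEK293 and purified by Ni-NTA affinity, was reacted with a DABCYL FRET peptide substrate (added as a 60 μM solution) for 60-120 min at 32 C. Fluorescence increase was read at ex 340/em 490 nm; IC50 was derived from % inhibition versus compound concentration.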

[1] = test system: Human C3-DEPOSITION SERUM; assay: C3 deposition assay, human serum on mannan-coated plates; format: biochemical; details: Average IC50, read-out: Human C3-DEPOSITION SERUM IC50
Procedure: 3. C3 Deposition Assay (Human, Rat, Mouse, Dog, Pig))
The C3 deposition assay was conducted essentially as described (reference). Multiwell plates (Greiner-Nunc 384 Maxi Sorp #464718) were coated over night with Mannan from Saccharomyces cerevisiae (Sigma M7504, 10 μg/mL in 0.05 M carbonate-bicarbonate buffer, pH 9.6) at 4° C. Wells were washed three times with TBS and subsequently incubated for 2 hours with 50 μL of 1% bovine serum albumin (BSA) in Tris-buffered saline (TBS) at 37° C. in order to block non-specific binding. After this step and each of the following incubation steps wells were washed three times with C3 wash buffer (TBS; 0.05% Tween 20; 5 mM CaCl2). […] When appropriately developed the color reaction was stopped by addition of 25 μL of stop solution (Sigma S5814) and quantified on a photometer by measuring absorption at a wavelength of 450 nm. Antibodies were diluted in C3 wash buffer supplemented with 0.5% BSA.

Sequence of human MASP2 (O00187 other isoform, or with tags, fused parts or gaps): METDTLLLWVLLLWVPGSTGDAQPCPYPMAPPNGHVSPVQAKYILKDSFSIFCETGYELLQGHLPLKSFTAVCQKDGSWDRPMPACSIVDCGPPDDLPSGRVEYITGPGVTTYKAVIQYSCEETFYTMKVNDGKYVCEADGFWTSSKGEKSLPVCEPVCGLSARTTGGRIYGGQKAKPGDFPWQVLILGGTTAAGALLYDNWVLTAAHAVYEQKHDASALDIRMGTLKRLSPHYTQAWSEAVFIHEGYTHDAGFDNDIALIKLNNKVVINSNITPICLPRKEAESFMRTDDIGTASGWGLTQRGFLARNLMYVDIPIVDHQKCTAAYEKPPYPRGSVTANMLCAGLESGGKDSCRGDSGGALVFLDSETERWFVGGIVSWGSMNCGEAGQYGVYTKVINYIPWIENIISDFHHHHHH
Sequence of human MASP1 (P48740 other isoform, or with tags, fused parts or gaps): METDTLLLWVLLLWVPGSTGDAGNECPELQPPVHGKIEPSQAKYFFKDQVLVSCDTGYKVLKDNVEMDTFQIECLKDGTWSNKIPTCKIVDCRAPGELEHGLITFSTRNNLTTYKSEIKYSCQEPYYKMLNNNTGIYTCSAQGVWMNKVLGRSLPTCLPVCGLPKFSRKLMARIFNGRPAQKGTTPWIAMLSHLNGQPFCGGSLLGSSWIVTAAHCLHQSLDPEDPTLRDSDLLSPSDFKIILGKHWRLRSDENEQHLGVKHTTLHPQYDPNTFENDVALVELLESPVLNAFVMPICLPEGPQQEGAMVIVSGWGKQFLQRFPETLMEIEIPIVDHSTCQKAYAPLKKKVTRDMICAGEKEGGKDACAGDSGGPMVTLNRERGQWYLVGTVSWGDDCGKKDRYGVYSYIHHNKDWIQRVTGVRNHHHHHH

Structure (SMILES) | IC50 (human MASP1) [nM] | IC50 (human MASP2) [nM] | IC50 [1] [nM]
CC[C@H](C)[C@@H]1NC(=O)[C@H](CN)NC(=O)[C@@H]2CCCN2C(=O)[C@H]([C@@H](C)CC)NC(=O)[C@H]2NC(=O)[C@H]([C@@H](C)CC)NC(=O)[C@@H]3CCCN3C(=O)[C@@H]3CCCN3C(=O)[C@H](CC(C)(C)C)NC(=O)[C@H](CO)NC(=O)[C@H](CCCNC(=N)N)NC(=O)[C@H](CO)NC(=O)[C@H](CSSC2(C)C)NC1=O [Example 55, N-{3-[(6S,9S,12S,15S,18R,21S,24S,26aS,32S,35R,38S,40aS,45aS)-24-(aminomethyl)-21,32,38-tri[(2S)-butan-2-yl]-6-(2,2-dimethylpropyl)-9,15-bis(hydroxymethyl)-46,46-dimethyl-5,8,11,14,17,20,23,26,31,34,37,40,45-tridecaoxotetratetracontahydro-1H-18,35-(methanodithiomethano)tripyrrolo[1,2-a:1′,2′-d:1″,2″-p][1,4,7,10,13,16,19,22,25,28,31,34,37]tridecaazacyclononatriacontin-12-yl]propyl}guanidine] (cyclo(CSRS[tBuAla]PPI[Pen]IP[Dap]I); disulfide 1-9) | 46 | 900 | 382
CC[C@H](C)[C@@H]1NC(=O)[C@H](CCN)NC(=O)[C@@H]2CCCN2C(=O)[C@H]([C@@H](C)CC)NC(=O)[C@H]2NC(=O)[C@H]([C@@H](C)CC)NC(=O)[C@@H]3CCCN3C(=O)[C@@H]3CCCN3C(=O)[C@H](CC(C)(C)C)NC(=O)[C@H](CO)NC(=O)[C@H](CCCNC(=N)N)NC(=O)[C@H](CO)NC(=O)[C@H](CSSC2(C)C)NC1=O [Example 56, N-{3-[(6S,9S,12S,15S,18R,21S,24S,26aS,32S,35R,38S,40aS,45aS)-24-(2-aminoethyl)-21,32,38-tri[(2S)-butan-2-yl]-6-(2,2-dimethylpropyl)-9,15-bis(hydroxymethyl)-46,46-dimethyl-5,8,11,14,17,20,23,26,31,34,37,40,45-tridecaoxotetratetracontahydro-1H-18,35-(methanodithiomethano)tripyrrolo[1,2-a:1′,2′-d:1″,2″-p]-[1,4,7,10,13,16,19,22,25,28,31,34,37]tridecaazacyclononatriacontin-12-yl]propyl}guanidine] (cyclo(CSRS[tBuAla]PPI[Pen]IP[Dab]I); disulfide 1-9) | 86 | 1100 | 566
CC[C@H](C)[C@@H]1NC(=O)[C@H](CN)NC(=O)[C@H](CN)NC(=O)[C@H]([C@@H](C)CC)NC(=O)[C@H]2NC(=O)[C@H]([C@@H](C)CC)NC(=O)[C@@H]3CCCN3C(=O)[C@@H]3CCCN3C(=O)[C@H](CC(C)(C)C)NC(=O)[C@H](CO)NC(=O)[C@H](CCCNC(=N)N)NC(=O)[C@H](CO)NC(=O)[C@H](CSSC2(C)C)NC1=O [Example 57, N-{3-[(5aS,11S,14S,17S,20S,23R,26S,29S,32S,35S,38R,41S,43aS)-29,32-bis(aminomethyl)-26,35,41-tri[(2S)-butan-2-yl]-11-(2,2-dimethylpropyl)-14,20-bis(hydroxymethyl)-44,44-dimethyl-5,10,13,16,19,22,25,28,31,34,37,40,43-tridecaoxodotetracontahydro-5H-23,38-(methanodithiomethano)dipyrrolo[1,2-a:1′,2′-d]-[1,4,7,10,13,16,19,22,25,28,31,34,37]tridecaazacyclononatriacontin-17-yl]propyl}guanidine] (cyclo(CSRS[tBuAla]PPI[Pen]I[Dap][Dap]I); disulfide 1-9) | 46 | 340 | 236
CC[C@H](C)[C@@H]1NC(=O)[C@H](C)NC(=O)[C@@H](N)CCCNC(=O)C[C@@H](C(N)=O)NC(=O)[C@@H]2CCCN2C(=O)[C@H]([C@@H](C)CC)NC(=O)[C@H]2NC(=O)[C@H]([C@@H](C)CC)NC(=O)[C@@H]3CCCN3C(=O)[C@@H]3CCCN3C(=O)[C@H](CC(C)(C)C)NC(=O)[C@H](CO)NC(=O)[C@H](CCCNC(=N)N)NC(=O)[C@H](CO)NC(=O)[C@H](CSSC2(C)C)NC1=O [Example 61] (H-[Orn]AICSRS[tBuAla]PPI[Pen]IPD-NH2; lactam 1-15; disulfide 4-12) | 3.1 | 310 | 23.4

Continued, values first:

IC50 (human MASP1) [nM] | IC50 (human MASP2) [nM] | IC50 [1] [nM] | Structure (SMILES)
22 | 540 | 149 | CC[C@H](C)[C@@H]1NC(=O)CNC(=O)[C@H]2CC[C@@H](CC2)CNC(=O)CNC(=O)CC(C(N)=O)NC(=O)[C@@H]2CCCN2C(=O)[C@H]([C@@H](C)CC)NC(=O)[C@H]2NC(=O)[C@H]([C@@H](C)CC)NC(=O)[C@@H]3CCCN3C(=O)[C@@H]3CCCN3C(=O)[C@H](CC(C)(C)C)NC(=O)[C@H](CO)NC(=O)[C@H](CCCNC(=N)N)NC(=O)[C@H](CO)NC(=O)[C@H](CSSC2(C)C)NC1=O (stereo partly drawn) [Example 62, (1R,4S,10S,21S,24S,30S,33R,36S,39S,42S,45S,51S,57S,60S)-4,30,60-tri[(2S)-butan-2-yl]-39-(3-carbamimidamidopropyl)-45-(2,2-dimethylpropyl)-36,42-bis(hydroxymethyl)-63,63-dimethyl-2,5,11,15,18,25,28,31,34,37,40,43,46,52,58,61-hexadecaoxo-64,65-dithia-3,6,12,16,19,26,29,32,35,38,41,44,47,53,59,62-hexadecaazahexacyclo[31.29.4.2^21,240.0^6,100.0^47,510.0^53,57]octahexacontane-13-carboxamide] (G[Trx]GICSRS[tBuAla]PPI[Pen]IP[ξD]-NH2; disulfide 5-13; lactam N-16)
8.1 | 22 | 25.8 | CC[C@H](C)[C@@H]1NC(=O)[C@H]2NC(=O)[C@H]([C@@H](C)CC)NC(=O)[C@@H]3CCCN3C(=O)[C@@H]3CCCN3C(=O)[C@H](CC(C)(C)C)NC(=O)[C@H](CO)NC(=O)[C@H](CCCNC(=N)N)NC(=O)[C@H](CO)NC(=O)[C@H](CSSC2(C)C)NC(=O)[C@H]([C@@H](C)CC)NC(=O)[C@@H](N)CCCNC1=O [Example 66, N-{3-[(5aS,11S,14S,17S,20S,23R,26S,29R,35S,38S,41S,43aS)-29-amino-26,35,41-tri[(2S)-butan-2-yl]-11-(2,2-dimethylpropyl)-14,20-bis(hydroxymethyl)-44,44-dimethyl-5,10,13,16,19,22,25,28,34,37,40,43-dodecaoxodotetracontahydro-5H-23,38-(methanodithiomethano)dipyrrolo[2,1-1:2′,1′-o][1,4,7,10,13,16,19,22,25,28,31,34]dodecaazacyclononatriacontin-17-yl]propyl}guanidine] (H-[Orn]ICSRS[tBuAla]PPI[Pen]I; lactam 1-C; disulfide 3-11)
3.25 | 150 | 19.1 | CC[C@H](C)[C@@H]1NC(=O)[C@H]2NC(=O)[C@H]([C@@H](C)CC)NC(=O)[C@@H]3CCCN3C(=O)[C@@H]3CCCN3C(=O)[C@H](CC(C)(C)C)NC(=O)[C@H](CO)NC(=O)[C@H](CCCNC(=N)N)NC(=O)[C@H](CO)NC(=O)[C@H](CSSC2(C)C)NC(=O)[C@H]([C@@H](C)CC)NC(=O)[C@@H](N)CCCCNC1=O [Example 67, N-{3-[(5aS,11S,14S,17S,20S,23R,26S,29S,36S,39R,42S,44aS)-29-amino-26,36,42-tri[(2S)-butan-2-yl]-11-(2,2-dimethylpropyl)-14,20-bis(hydroxymethyl)-45,45-dimethyl-5,10,13,16,19,22,25,28,35,38,41,44-dodecaoxodotetracontahydro-1H,5H-23,39-(methanodithiomethano)dipyrrolo[2,1-1:2′,1′-o][1,4,7,10,13,16,19,22,25,28,31,34]dodecaazacyclotetracontin-17-yl]propyl}guanidine] (H-KICSRS[tBuAla]PPI[Pen]I; lactam 1-C; disulfide 3-11)
20 | 190 | 364 | CC[C@H](C)[C@@H]1NC(=O)CNC(=O)[C@H]2CC[C@@H](CC2)CNC(=O)CNC(=O)C[C@@H](C(N)=O)NC(=O)[C@@H]2CCCN2C(=O)[C@H]([C@@H](C)CC)NC(=O)[C@@H]2CSSC[C@H](NC1=O)C(=O)N[C@@H](CO)C(=O)N[C@@H](CCCNC(=N)N)C(=O)N[C@@H](CO)C(=O)N[C@@H](CC(C)(C)C)C(=O)N1CCC[C@H]1C(=O)N1CCC[C@H]1C(=O)N[C@@H]([C@@H](C)CC)C(=O)N2C [Example 69, (1R,4S,10S,13S,21S,24S,30S,33R,36S,39S,42S,45S,51S,57S,60S)-4,30,60-tri[(2S)-butan-2-yl]-39-(3-carbamimidamidopropyl)-45-(2,2-dimethylpropyl)-36,42-bis(hydroxymethyl)-62-methyl-2,5,11,15,18,25,28,31,34,37,40,43,46,52,58,61-hexadecaoxo-64,65-dithia-3,6,12,16,19,26,29,32,35,38,41,44,47,53,59,62-hexadecaazahexacyclo[31.29.4.2^21,240.0^6,100.0^47,510.0^53,57]octahexacontane-13-carboxamide] (G[Trx]GICSRS[tBuAla]PPI[NMeC]IPD-NH2; disulfide 5-13; lactam N-16)
